Results published in patent US20220118057A1, “ALBUMIN NANOPARTICLES, THE MAKING METHOD, AND USES THEREOF” (NOVAGENESIS THERAPEUTIX (HK) LIMITED, priority 2019, published 2022).

Key:
[1] = system: MIA PaCa-2 KRAS KD; assay: BSA macropinocytosis (6-TAMRA-BSA uptake), flow cytometry and confocal microscopy; format: cell-based, human; details: 75 μM EIPA pretreatment 30 minutes
Method: (§1) 4 pancreatic cancer cell lines, MIA PaCa-2 control, MIA PaCa-2 KRAS KD, BxPC-3 control and BxPC-3 KRAS^G12V (10^5 cells per well, 1 mL) were inoculated in a 12-well microplate (Corning, N.Y., USA) and incubated at 37° C. and 5% CO2. When the cell density reached approximately 65%, the cell culture medium was replaced with a serum-free culture medium. After 12 hours, the culture medium was removed again and replaced with DMEM containing 1 mg/mL 6-TAMRA-BSA (500 μL/well). After incubated for another 4 hours, the cells were washed, digested and suspended in PBS (400 μL) and subjected to fluorescence analysis on a flow cytometer (BD, FACS Calibur, USA) using a 544 nm laser excitation and a 575 nm emission filter. Based on forward scattering and side scattering analysis, viable cells (10,000 cells/sample) were counted to detect the fluorescence intensity of the cells. For the EIPA (a known macropinocytosis inhibitor) inhibition experiment, cells were incubated with serum-free culture medium for 12 hours, pretreated with 75 μM of EIPA for 30 minutes, then replaced with fresh DMEM containing 1 mg/ml 6-TAMRA-BSA was added (500 μL/well).
(§2) Cells were cultured and treated as described above and grown on coverslips. After cell nuclei were stained with DAPI, the cells grown on the coverslips were observed under a multiphoton confocal Ti-E A1RMP inverted microscope (Nikon, Japan).

[2] = system: MIA PaCa-2 control; assay: as above; format: cell-based, human; details: 75 μM EIPA pretreatment 30 minutes
Method: as §1, §2

[3] = system: BxPC-3 control; assay: as above; format: cell-based, human; details: 75 μM EIPA pretreatment 30 minutes
Method: as §1, §2

[4] = system: BxPC-3 KRAS^G12V; assay: as above; format: cell-based, human; details: 75 μM EIPA pretreatment 30 minutes
Method: as §1, §2

[5] = Pharmacokinetics of dC3 and β-lap after intravenous injection; format: in vivo, Sprague Dawley rats; details: Sprague Dawley, rat, plasma, 50 mg/kg (β-lap equivalent dose), β-lap once converted from dC3, read-out: pharmacokinetic half-life
Method: The comparison of pharmacokinetics of different preparations in Sprague Dawley rats (n=3 per group) was performed. […] The blood samples were centrifuged at 4° C. and 1000 rpm for 3 minutes. The plasma concentrations of β-lap and dC3 were analyzed by LC-MS/MS (AB Sciex QTRAP 5500, USA).

[6] = system: SW1990 (KRAS^G12D); assay: In vitro cytotoxicity, MTS assay; format: cell-based
Method: (§3) Briefly, four pancreatic cancer cell lines were firstly inoculated into a 96-well culture plate (4000 cells/well), each well containing 0.1 mL of cell culture medium. […] PLE (1 U/mL) was added concurrently with the dC3 preparation. The cells were further incubated for 12 hours, then the culture medium containing drugs was removed and new culture medium without drug was added. Relative survival curves of the four pancreatic cancer cell lines were obtained using the MTS assay (Promega, USA). The mean value of 6 wells per treatment was calculated and the treatment/control (T/C) value was calculated as a percentage of cell survival rate. All calculations were performed by GraphPad Prism 7 software (GraphPad Software, USA).
(§4) The relative survival profiles of pancreatic cancer cells SW1990 (KRAS^G12D) and SW1990/GEM (KRAS^G12D) were also measured using the same method. SW1990/GEM was cultured in a culture medium with 50 μM gemcitabine to maintain drug resistance.

[7] = system: SW1990/GEM (KRAS^G12D); assay: In vitro cytotoxicity, MTS assay; format: cell-based
Method: as §3, §4

[8] = system: porcine liver esterase (PLE); assay: Conversion of dC3 to β-lap at different BSA concentrations; format: in vitro ADME
Method: In order to study the effect of BSA on the conversion of dC3 to β-lap catalyzed by an esterase, dC3 was dissolved in DMSO (final DMSO concentration <0.5%), and then added dropwise to a solution of 1 M sodium salicylate, 1 U/mL porcine liver esterase (PLE) and different concentrations of BSA. The solution was shaken in a water bath at 60 rpm at 37° C. At predetermined time points (5, 10, 15, 30, 45, 60, 90, and 120 minutes), each 0.5 mL of release medium were taken out and replaced with an equal volume of fresh medium. The removed release medium was mixed with 0.5 mL of acetonitrile, and centrifuged for 10 minutes at 10,000 rpm to remove denatured proteins. The concentration of β-lap was analyzed by H PLC.
In order to study whether the effect of BSA on dC3-β-lap conversion catalyzed by an esterase will change in the presence of the polymer, the above-mentioned experiments were also conducted with the amount of PEG5K-β-PLA5K proportional to micelle preparation. Other conditions remained unchanged.

[9] = system: MIA PaCa-2 control; assay: In vitro cytotoxicity, MTS assay; format: cell-based, human; details: PLE 1 U/mL; slightly higher than β-lap
Description: KRAS mutant cells MIA PaCa-2 (KRAS^G12C) and KRAS wild-type (KRAS^WT) BxPC-3 were selected for experiments. The expression levels of mutant KRAS in MIA PaCa-2 and BxPC-3 cells were manipulated. According to the supplier's protocol, MIA PaCa-2 cells with low expression level of KRAS were realized by lentiviral-mediated construction and transfection of pCDH-KRas-shRNA; control MIA PaCa-2 cells were realized by lentiviral-mediated transfection of pCDH vector; BxPC-3 cells with high expression level of KRAS were realized by lentiviral-mediated construction and transfection of pCDH-KRas-G12V, and control BxPC-3 cells were realized by lentiviral-mediated transfection of pCDH vector. All plasmids were purchased from […] Addgene (USA). The plasmid was transfected into the cells using transfection reagents (Promega, USA). 1 μg/mL puromycin was added to the culture medium for 48 hours to select stable transfected cell lines. Cells were represented as MIA PaCa-2 control, MIA PaCa-2 KRAS KD, BxPC-3 control and BxPC-3 KRAS^G12V.
Briefly, four pancreatic cancer cell lines were firstly inoculated into a 96-well culture plate (4000 cells/well), each well containing 0.1 mL of cell culture medium. […] The mean value of 6 wells per treatment was calculated and the treatment/control (T/C) value was calculated as a percentage of cell survival rate. […]

[10] = Solubility and apparent drug concentration; format: physicochemical

In the case of `CCN(c1nc(N)c(C(=O)N=C(N)N)nc1Cl)C(C)C` [EIPA, 5-[N-ethyl-N-isopropyl] amiloride], the “effect on BSA uptake” value [1] is reported as “almost had no effect”, the “effect on 6-TAMRA-BSA uptake (macropinocytosis)” value [2] is reported as “can be inhibited” and the “effect on BSA uptake” value [3] is reported as “almost had no effect”. For the same compound, the “effect on 6-TAMRA-BSA uptake (macropinocytosis)” value [4] was “can be inhibited”.

For `CC1(C)CCC2=C(O1)c1ccccc1C(=O)C2=O` [β-lap, β-lapachone], the half-life [5] was ~24 min, the inhibition of cells [6] was “effectively inhibit” and the inhibition of cells [7] was “effectively inhibit”.

In the case of `CCC(=O)Oc1c2c(c3ccccc3c1OC(=O)CC)OC(C)(C)CC2` [dC3], the dC3-β-lap conversion ratio ([8]; BSA introduced at a low BSA-dC3 ratio, PLE) is reported as “significantly reduced”, the dC3-β-lap conversion ([8]; BSA plus small amount of PEG-b-PLA proportional to micelle preparation) is reported as “accelerated” and the “IC50 values, compared among dC3 treatments” value [9] is reported as “comparable”. For the same compound, the solubility [10] was < 0.1 µg/mL.
